According to BindingDB's records for patent US12065407 (Plex Pharmaceuticals, 2024):

How the values were obtained:
[1] = target: T1, Peptidyl-prolyl cis-trans isomerase FKBP4 (Homo sapiens, UniProt Q02790); test: Ki Estimation
T1 sequence (Q02790 whole entry): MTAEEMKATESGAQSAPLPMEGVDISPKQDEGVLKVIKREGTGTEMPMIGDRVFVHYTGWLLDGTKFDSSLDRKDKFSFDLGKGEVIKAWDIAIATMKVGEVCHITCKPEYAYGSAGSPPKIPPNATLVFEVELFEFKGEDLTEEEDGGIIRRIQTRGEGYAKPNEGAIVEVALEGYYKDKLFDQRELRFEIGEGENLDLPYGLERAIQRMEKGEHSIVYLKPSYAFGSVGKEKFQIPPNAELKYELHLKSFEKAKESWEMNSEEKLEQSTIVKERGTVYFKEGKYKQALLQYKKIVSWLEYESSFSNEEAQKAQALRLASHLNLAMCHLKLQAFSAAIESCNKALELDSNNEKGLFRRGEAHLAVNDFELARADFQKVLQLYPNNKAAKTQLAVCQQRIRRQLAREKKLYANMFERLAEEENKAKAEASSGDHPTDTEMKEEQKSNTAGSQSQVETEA

[2] = target: Peptidyl-prolyl cis-trans isomerase FKBP1A (Homo sapiens, UniProt P62942); test: Ki Estimation
Peptidyl-prolyl cis-trans isomerase FKBP1A, sequence (P62942 whole entry): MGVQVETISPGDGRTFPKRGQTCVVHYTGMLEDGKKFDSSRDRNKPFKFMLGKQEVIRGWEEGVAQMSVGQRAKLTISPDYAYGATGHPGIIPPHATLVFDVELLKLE

Ki [1] | Ki [2] | Structure (SMILES)
> 15 µM | > 10 µM | CCCCn1c(/C=C/c2ccccc2)nc2ccccc21 [US12065407, ID CAP01554]
> 20 µM | > 15 µM | CC(C)Cn1c(/C=C/c2ccccc2)nc2ccccc21 [US12065407, ID CAP01555]
 | 32.5 µM | O=C(N[C@@H](Cc1ccc(Cl)cc1)C(=O)NCCCc1ccccc1)C1C2CC3CC(C2)CC1C3 (stereo partly specified) [US12065407, ID CAP01685]
> 25 µM | > 25 µM | O=C(N[C@@H](Cc1ccc(Cl)cc1)C(=O)NCCCc1ccccc1)c1ccc(F)cc1 [US12065407, ID CAP01719]
> 50 µM |  | O=C(N[C@@H](Cc1ccc(Cl)cc1)C(=O)NCCCc1ccccc1)c1nc2ccccc2[nH]1 [US12065407, ID CAP01721]
> 40 µM | > 40 µM | O=C(N[C@@H](Cc1ccc(F)cc1)C(=O)NCCCc1ccccc1)c1ccc2ccccc2c1 [US12065407, ID CAP01740]
> 25 µM | > 25 µM | CCC(C)(C)C(=O)N[C@H](C(=O)OCCCc1cccnc1)C1CCCC1 [US12065407, ID Tbl1.1]

More lines, now with the values behind:

Structure (SMILES) | Ki [1] | Ki [2]
Cn1c(/C=C/c2ccc(Cl)cc2)nc2ccccc21 [US12065407, ID CAP01509] | > 10 µM | > 10 µM
Fc1ccccc1Cn1c(/C=C/c2ccccc2)nc2ccccc21 [US12065407, ID CAP01547] | > 15 µM | > 10 µM
C(=C\c1nc2ccccc2n1Cc1ccccc1)/c1ccccc1 [US12065407, ID CAP01548] | > 20 µM | > 15 µM
CCCn1c(/C=C/c2ccccc2)nc2ccccc21 [US12065407, ID CAP01549] | > 25 µM | > 20 µM
O=C(N[C@H](Cc1ccc(Cl)cc1)C(=O)NCCCc1ccccc1)c1ccc2ccccc2c1 [US12065407, ID CAP01691] |  | > 50 µM
